# Measurements: patent US8759382B2, “Propargyl-trifluoromethoxy-aminobenzothiazole derivatives, their preparation and use” (Teva Pharmaceutical Industries Ltd., priority 2010, dated 2014)
# Tested on: EAE induced in the CSJL/FI strain of mice
# Assay: EAE model in CSJL/FI mice (MSCH/CFA-induced), clinical scoring
# Assay type: in vivo
# Procedure: EAE induced in the CSJL/FI strain of mice was selected to test the compounds mentioned above, as it is an established EAE model to test the efficacy of candidate molecules for MS treatment.
# Disease was induced in all mice by the injection of the encephalitogenic emulsion (MSCH/CFA). Treatment was started from day 1 of the study or at disease onset and was administered every day, orally (BID), from onset of the study.
# Healthy, nulliparous, non-pregnant female mice of the CSJL/FI strain obtained from Harlan Animal Breeding Center, Jerusalem, Israel were used in the study. The animals weighed about 17-20 g on arrival, and were approximately 9 weeks of age at initiation of the study. Overtly healthy animals were assigned to study groups arbitrarily before treatment commenced.
# The mice were allocated to the following 8 groups of 10 mice each:
# Treatments in all groups were administered orally.
# The emulsion was made from equal parts of oil (4 mL CFA containing 1.0 mg/ml MT) and liquid portions ([…] MSCH/2.5 mL PBS) in two syringes connected to each other with a Leur lock. The concentration of MSCH in emulsion is 40 mg/mL.
# The emulsion was transferred to an insulin syringe before injection. 0.05 ml was injected into the left foot-pad of each mouse.
# 104 μL Pertussis toxin (200 μg/ml) was added to 25.87 ml PBS to yield 800 ng/ml. The pertussis toxin was administered intravenously on the day of the encephalitogen injection and 48 hours later (160.0 ng/0.2 ml/mouse×2=320 ng/mouse).
# Laquinimod was diluted in DDW water to yield 0.1 mg/ml. The solution was stored in an amber colored bottle at 2 to 8° C. The 0.1 mg/ml laquinimod was administered orally, once, daily from the initiation of the study until study termination (Day 23).
# Compounds B and C were dissolved in 5% Dextrose to concentrations of 2.5, 5.0 and 10 mg/ml for dose levels of 25, 50 and 100 mg/kg respectively. Test samples were freshly prepared. The 2.5, 5.0 and 10 mg/ml concentrations of Compounds B and C were administered orally, twice daily (BID) from initiation of study until study termination (Day 23) to groups
# Scoring of EAE clinical signs were initiated from the 10th day post-EAE induction and were continued daily. The clinical signs were recorded on observation cards according to a grading system described in the table below.
# All mice having scores of 1 and above were considered sick.
# Animals with a score of 4 for more than two days were given a score of 5 and sacrificed for humane reasons. For calculation purposes, the score (5) of animals that are sacrificed or died will be carried forward (LOCF).
# The number of sick animals in each group was summed.
# The incidence of disease was calculated as
# The percent inhibition according to incidence was calculated as: […]
# The number of dead or moribund animals in each group was summed.
# The mortality of disease was calculated as
# The percent inhibition according to mortality was calculated as
# The mean delay in onset of disease expressed in days is calculated by subtracting the mean onset of disease in control group from test group.
# The mean maximal score (MMS) of each group was calculated as
# The percent inhibition according to MMS was calculated as
# The daily scores of each mouse in the test group was summed and the individual mean daily score (IMS) was calculated as
# The mean group score (GMS) was calculated as
# The percent inhibition was calculated as
# This example was performed in the same manner as example 3 with the following groups:
# Compound A was prepared for administration by mixing in 0.5% methyl cellulose (0.5% MC) to concentrations of 2.5, 5.0 and 10 mg/ml for dose levels of 25, 50 and 100 mg/kg respectively. The samples were vortexed and sonicated until a clear solution was obtained.
# The 2.5, 5.0 and 10 mg/ml concentrations of Compound A were administered orally, twice daily (BID) from initiation of study until study termination (Day 23) at a volume dose of 0.2 ml/mouse.
# Compound B was prepared for administration as in Example 3. […]
# [1] = Example 3, 1 mg/kg QD oral, Day 0 to 22, percent inhibition vs 5% dextrose negative control
# [2] = Example 3, all dose levels (25, 50, 100 mg/kg BID oral) in 5% dextrose
smiles,measurement,setting,value
"CCN(C(=O)c1c(O)c2c(Cl)cccc2n(C)c1=O)c1ccccc1 [laquinimod, reference compound]",activity according to GMS (group mean score),[1],96.7%
same,activity according to MMS (mean maximal score),[1],93.5%
same,activity according to incidence,[1],80%
"C#CCN1CCN(c2nc3ccc(OC(F)(F)F)cc3s2)CC1 [Compound A, 2-(4-(prop-2-ynyl)piperazin-1-yl)-6-(trifluoromethoxy)benzo[d]thiazole]",protection from disease onset and severity (in words),"Example 4, 25, 50 and 100 mg/kg BID oral in 0.5% methyl cellulose, all doses tested",almost complete protection
same,efficacy compared with Compound B,"Example 4, Compound A 25-100 mg/kg BID vs Compound B 15-25 mg/kg BID, oral",better than Compound B
"C#CCNCc1nc2ccc(OC(F)(F)F)cc2s1 [Compound B, N-((6-(trifluoromethoxy)benzo[d]thiazol-2-yl)methyl)prop-2-yn-1-amine]",mortality,"Example 3, 25 mg/kg BID oral",no mortality
same,activity based on GMS (EAE inhibition),"Example 3, 25 mg/kg BID oral in 5% dextrose, Day 0 to 22",55.9%
same,activity based on GMS (EAE inhibition),"Example 3, 100 mg/kg BID oral in 5% dextrose, Day 0 to 22",56.4%
same,activity in EAE (in words),[2],some activity
same,activity in EAE (in words),"Example 4, 15 and 25 mg/kg BID oral, Day 0 to 22",moderate activity
"C#CCN(C)Cc1nc2ccc(OC(F)(F)F)cc2s1 [Compound C, N-methyl-N-((6-(trifluoromethoxy)benzo[d]thiazol-2-yl)methyl)prop-2-yn-1-amine]",activity in EAE (in words),[2],some activity
